As a reminder, the inhibition is the drop in the measured response relative to a control, in per cent.

Read-outs that look alike come from different tables or passages of the source.

Experiment in all cases: SelectScreen Kinase Profiling, single point inhibition and IC50 for off-target kinases
Type in all cases: biochemical

For test [1], the target named is off-target kinases (Homo sapiens, UniProt Q9BYP7).
The target of test [2] is T1, off-target kinases (Homo sapiens, UniProt Q16832, N456S).
T1 sequence (Q16832 22-855 N456S): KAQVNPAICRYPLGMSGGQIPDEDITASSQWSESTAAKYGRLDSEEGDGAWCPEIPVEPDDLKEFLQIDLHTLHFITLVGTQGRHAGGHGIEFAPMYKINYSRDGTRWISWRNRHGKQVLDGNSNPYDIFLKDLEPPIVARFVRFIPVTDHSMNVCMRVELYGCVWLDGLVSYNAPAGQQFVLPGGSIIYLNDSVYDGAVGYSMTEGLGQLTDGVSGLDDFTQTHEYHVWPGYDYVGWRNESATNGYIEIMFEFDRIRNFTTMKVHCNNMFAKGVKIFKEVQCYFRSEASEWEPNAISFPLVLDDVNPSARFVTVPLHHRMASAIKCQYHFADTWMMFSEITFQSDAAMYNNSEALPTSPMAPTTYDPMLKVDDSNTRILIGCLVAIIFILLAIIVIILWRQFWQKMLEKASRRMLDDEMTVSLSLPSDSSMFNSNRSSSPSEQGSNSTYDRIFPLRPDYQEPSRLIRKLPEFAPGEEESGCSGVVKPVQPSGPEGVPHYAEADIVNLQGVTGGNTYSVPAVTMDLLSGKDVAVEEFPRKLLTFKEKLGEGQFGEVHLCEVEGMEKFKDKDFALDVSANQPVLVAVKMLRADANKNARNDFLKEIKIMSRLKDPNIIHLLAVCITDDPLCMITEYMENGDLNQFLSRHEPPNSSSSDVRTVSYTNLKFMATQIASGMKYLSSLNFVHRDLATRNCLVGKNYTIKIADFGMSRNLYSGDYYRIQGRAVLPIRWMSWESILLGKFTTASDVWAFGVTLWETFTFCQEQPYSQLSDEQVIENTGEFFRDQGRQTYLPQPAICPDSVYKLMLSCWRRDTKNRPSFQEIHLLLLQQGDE
Particulars: DDR2 N456S, mutant y, LanthaScreen Binding.

The target in test [3] is off-target kinases (Homo sapiens, UniProt Q9UIK4). As to conditions: DAPK2, LanthaScreen Binding. In general terms: Time-resolved FRET reads energy transfer from a long-lived donor to a nearby acceptor.
off-target kinases (Homo sapiens, UniProt Q9UIK4), sequence (Q9UIK4 whole entry): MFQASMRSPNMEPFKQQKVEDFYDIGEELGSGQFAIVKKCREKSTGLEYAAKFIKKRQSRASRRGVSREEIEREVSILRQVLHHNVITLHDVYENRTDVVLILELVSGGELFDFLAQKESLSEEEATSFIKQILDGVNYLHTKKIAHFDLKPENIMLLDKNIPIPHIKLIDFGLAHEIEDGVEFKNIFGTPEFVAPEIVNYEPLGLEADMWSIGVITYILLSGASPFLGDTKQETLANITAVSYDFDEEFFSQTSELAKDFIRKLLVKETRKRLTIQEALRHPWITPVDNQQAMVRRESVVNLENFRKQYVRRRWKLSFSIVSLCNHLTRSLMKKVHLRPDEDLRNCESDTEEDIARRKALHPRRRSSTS
In test [4] the target is off-target kinases (Homo sapiens, UniProt O43293). As to conditions: DAPK3 (ZIPK), ATP Km app, ZLYTE.
off-target kinases (Homo sapiens, UniProt O43293), sequence (O43293 whole entry): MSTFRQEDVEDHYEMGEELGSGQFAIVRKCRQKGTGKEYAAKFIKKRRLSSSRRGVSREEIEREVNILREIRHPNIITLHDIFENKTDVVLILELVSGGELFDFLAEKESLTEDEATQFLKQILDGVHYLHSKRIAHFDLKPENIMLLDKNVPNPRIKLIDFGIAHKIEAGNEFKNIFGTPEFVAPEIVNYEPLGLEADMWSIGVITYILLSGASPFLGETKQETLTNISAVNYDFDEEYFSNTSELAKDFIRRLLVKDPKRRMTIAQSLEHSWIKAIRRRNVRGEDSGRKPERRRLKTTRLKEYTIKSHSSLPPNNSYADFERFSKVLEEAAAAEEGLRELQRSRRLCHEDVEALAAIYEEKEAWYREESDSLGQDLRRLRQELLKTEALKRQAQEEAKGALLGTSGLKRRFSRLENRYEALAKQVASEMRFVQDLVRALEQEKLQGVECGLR

off-target kinases (Homo sapiens, UniProt Q9BYP7), sequence (Q9BYP7 whole entry): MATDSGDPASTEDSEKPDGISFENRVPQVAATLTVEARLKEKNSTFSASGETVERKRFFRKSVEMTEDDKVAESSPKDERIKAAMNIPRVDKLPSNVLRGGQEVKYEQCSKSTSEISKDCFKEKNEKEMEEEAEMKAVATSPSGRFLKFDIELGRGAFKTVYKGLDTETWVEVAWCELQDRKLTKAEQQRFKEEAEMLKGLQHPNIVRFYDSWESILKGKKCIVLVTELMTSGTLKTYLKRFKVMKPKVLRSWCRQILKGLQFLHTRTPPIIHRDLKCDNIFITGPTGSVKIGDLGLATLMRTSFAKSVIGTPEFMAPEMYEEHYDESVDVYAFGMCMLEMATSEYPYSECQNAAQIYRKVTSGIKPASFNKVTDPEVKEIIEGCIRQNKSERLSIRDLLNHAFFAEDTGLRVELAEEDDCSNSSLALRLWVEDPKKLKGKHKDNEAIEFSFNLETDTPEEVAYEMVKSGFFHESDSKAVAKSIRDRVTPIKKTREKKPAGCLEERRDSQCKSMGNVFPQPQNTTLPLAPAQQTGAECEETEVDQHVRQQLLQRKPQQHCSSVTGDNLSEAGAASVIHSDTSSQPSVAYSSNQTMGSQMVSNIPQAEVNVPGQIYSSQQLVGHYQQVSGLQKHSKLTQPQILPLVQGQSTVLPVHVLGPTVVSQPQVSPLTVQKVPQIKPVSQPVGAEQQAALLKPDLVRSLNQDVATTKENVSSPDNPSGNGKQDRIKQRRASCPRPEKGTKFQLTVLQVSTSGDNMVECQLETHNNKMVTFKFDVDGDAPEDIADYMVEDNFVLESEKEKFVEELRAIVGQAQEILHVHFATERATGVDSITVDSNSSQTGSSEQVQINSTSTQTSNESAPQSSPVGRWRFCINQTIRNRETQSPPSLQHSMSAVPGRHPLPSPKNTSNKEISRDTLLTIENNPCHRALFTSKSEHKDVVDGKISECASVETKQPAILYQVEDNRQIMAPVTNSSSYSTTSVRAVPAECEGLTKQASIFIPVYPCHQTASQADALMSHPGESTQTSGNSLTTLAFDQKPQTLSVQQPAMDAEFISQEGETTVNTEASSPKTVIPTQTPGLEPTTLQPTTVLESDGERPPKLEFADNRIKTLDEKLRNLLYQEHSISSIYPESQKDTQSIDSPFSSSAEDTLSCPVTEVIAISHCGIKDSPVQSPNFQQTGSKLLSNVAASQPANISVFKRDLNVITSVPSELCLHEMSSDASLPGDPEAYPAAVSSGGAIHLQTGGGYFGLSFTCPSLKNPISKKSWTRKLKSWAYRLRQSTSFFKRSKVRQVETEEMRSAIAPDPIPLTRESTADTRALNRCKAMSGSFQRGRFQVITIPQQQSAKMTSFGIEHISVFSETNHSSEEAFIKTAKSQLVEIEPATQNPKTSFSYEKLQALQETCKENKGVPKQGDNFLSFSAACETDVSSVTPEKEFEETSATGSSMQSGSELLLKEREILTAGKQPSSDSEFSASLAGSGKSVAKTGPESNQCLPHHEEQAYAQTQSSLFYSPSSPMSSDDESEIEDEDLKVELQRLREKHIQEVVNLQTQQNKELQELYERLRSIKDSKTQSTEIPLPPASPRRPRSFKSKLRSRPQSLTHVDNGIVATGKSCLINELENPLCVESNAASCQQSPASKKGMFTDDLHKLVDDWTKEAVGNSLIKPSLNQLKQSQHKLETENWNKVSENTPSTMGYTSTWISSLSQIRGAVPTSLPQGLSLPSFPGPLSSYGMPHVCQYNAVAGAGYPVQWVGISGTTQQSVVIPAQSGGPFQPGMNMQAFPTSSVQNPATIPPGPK

As to `N#Cc1cc(-c2ncnc(Nc3ccc(N4CCN(C5COC5)CC4)cc3)n2)ccc1OC1CCOCC1` [Compound 1, 5-(4-((4-(4-(oxetan-3-yl)piperazin-1-yl)phenyl)amino)-1,3,5-triazin-2-yl)-2-((tetrahydro-2H-pyran-4-yl)oxy)benzonitrile], the inhibition in test [1] (WNK3, LanthaScreen Binding, read-out: % Inhibition 1) is -3%; in test [1] (WNK3, LanthaScreen Binding, read-out: % Inhibition Avg) it was -2%; in test [1] (read-out: % Inhibition 2) it was 0%; in test [2] (read-out: % Inhibition 1), 33%; in test [2] (read-out: % Inhibition 2) it was 42%; in test [2] (read-out: % Inhibition Avg) it was 37%. The inhibition amounted to 60% in test [3] (read-out: % Inhibition 1); 53% in test [3] (read-out: % Inhibition 2); 56% in test [3] (read-out: % Inhibition Avg); 52% in test [4] (read-out: % Inhibition 1); 49% in test [4] (read-out: % Inhibition 2); 51% in test [4] (read-out: % Inhibition Avg).

The values above are taken from patent publication US11572590B2, “Methods for evaluating tumor cell spheroids using 3D microfluidic cell culture device” (Dana-Farber Cancer Institute, Inc., priority 2017, dated 2023).
